Assay results taken from patent US7674807B2, “Heterocycle-substituted n-phenyl-phthalamide derivatives, related compounds and their use as insecticides” (Bayer CropScience AG, priority 2004, dated 2010).

Experiments:
[1] = tested on: Myzus persicae resistant to organophosphorous agents and carbamates; test: Test against Myzus persicae resistant to organophosphorous agents and carbamates (spray on eggplant seedlings); type: in vivo; details: 100 ppm concentration of the effective component; 7 days after spraying; green house of 28° C.
Procedure: About 30 bred Myzus persicae resistant to organophosphorous agents and carbamates were inoculated per 1 seedling of eggplant planted in a vinyl pot of 6 cm diameter. One day after the inoculation, a sufficient amount of a diluted aqueous solution of a prescribed concentration of an active compound prepared as mentioned above, was sprayed by using a spray gun. After spraying it was placed in a green house of 28° C. and the rate of death was calculated 7 days after the spraying. Test was repeated twice.

[2] = tested on: larva of Spodoptera litura; test: Test against larva of Spodoptera litura (leaf dip, sweet potato leaves); type: in vivo; details: 20 ppm concentration of the active component; third instar larvae; counted after 7 days; 25° C.
Outline: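 Sweet potato leaves were dipped in emulsified compound diluted with water, air-dried, and given to 10 third-instar larvae per dish at 25° C, with fresh leaves added on days 2 and 4. Mortality was counted after 7 days and averaged over 2 dishes.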

[3] = tested on: larva of Cnaphalocrocis medinalis Guenee; test: Test against larva of Cnaphalocrocis medinalis Guenee (sprayed paddy rice foliage); type: in vivo; details: 20 ppm concentration of the active component; second instar larvae; counted after 7 days; 25° C.
Outline: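 Potted rice (Tamanishiki) sprayed with aqueous dilutions of compound at the prescribed concentration; air-dried leaf pieces placed in dishes with five 2nd-instar larvae at 25° C, fresh treated foliage added at days 2 and 4. Mortality counted at day 7, averaged over 2 dishes.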

Structure (SMILES) | controlling effect, rate of death [1] [%] | controlling effect, rate of death [2] [%] | controlling effect, rate of death [3] [%] | melting point [°C]
CSCC(C)NC(=O)c1c(Cl)cccc1C(=O)Nc1ccc(Cn2nc(C(F)(F)F)nc2C(F)(F)F)cc1C (centres unmarked) [compound 140] | 100 | 100 | 100 | 
CSCC(C)NC(=O)c1c(Cl)cccc1C(=O)Nc1ccc(Cn2nc(C(F)(F)F)nc2C(F)(F)F)cc1C (centres unmarked) [compound 141] | 100 | 100 | 100 | 
Cc1cc(Cn2nc(C(F)(F)F)nc2C(F)(F)F)ccc1NC(=O)c1cccc(Cl)c1C(=O)NC(C)CS(C)(=O)=O (centres unmarked) [compound 144] | 100 | 100 | 100 | 
CCSCC(C)NC(=O)c1c(Cl)cccc1C(=O)Nc1ccc(Cn2nc(C(F)(F)F)nc2C(F)(F)F)cc1C (centres unmarked) [compound 146] | 100 | 100 | 100 | 
CC[S+]([O-])CC(C)NC(=O)c1c(Cl)cccc1C(=O)Nc1ccc(Cn2nc(C(F)(F)F)nc2C(F)(F)F)cc1C (centres unmarked) [compound 147] | 100 | 100 | 100 | 
CCS(=O)(=O)CC(C)NC(=O)c1c(Cl)cccc1C(=O)Nc1ccc(Cn2nc(C(F)(F)F)nc2C(F)(F)F)cc1C (centres unmarked) [compound 148] | 100 | 100 | 100 | 
CSCC(C)(C)NC(=O)c1c(Br)cccc1C(=O)Nc1ccc(Cn2nc(C(F)(F)F)nc2C(F)(F)F)cc1C [compound 174] | 100 | 100 | 100 | 
Cc1cc(Cn2nc(C(F)(F)F)nc2C(F)(F)F)ccc1NC(=O)c1cccc(Br)c1C(=O)NC(C)(C)CS(C)(=O)=O [compound 176] | 100 | 100 | 100 | 
CSCC(C)NC(=O)c1c(Br)cccc1C(=O)Nc1ccc(Cn2nc(C(F)(F)F)nc2C(F)(F)F)cc1C (centres unmarked) [compound 178] | 100 |  |  | 
Cc1cc(Cn2nc(C(F)(F)F)nc2C(F)(F)F)ccc1NC(=O)c1cccc(Br)c1C(=O)NC(C)C[S+](C)[O-] (centres unmarked) [compound 180] | 100 | 100 | 100 | 
Cc1cc(Cn2nc(C(F)(F)F)nc2C(F)(F)F)ccc1NC(=O)c1cccc(Br)c1C(=O)NC(C)CS(C)(=O)=O (centres unmarked) [compound 181] | 100 | 100 | 100 | 
CSCC(C)(C)NC(=O)c1c(I)cccc1C(=O)Nc1ccc(Cn2nc(C(F)(F)F)nc2C(F)(F)F)cc1C [compound 211] | 100 | 100 | 100 | 
Cc1cc(Cn2nc(C(F)(F)F)nc2C(F)(F)F)ccc1NC(=O)c1cccc(I)c1C(=O)NC(C)(C)CS(C)(=O)=O [compound 213] | 100 | 100 | 100 | 
CSCC(C)NC(=O)c1c(I)cccc1C(=O)Nc1ccc(Cn2nc(C(F)(F)F)nc2C(F)(F)F)cc1C (centres unmarked) [compound 214] | 100 | 100 | 100 | 
CSCC(C)NC(=O)c1c(I)cccc1C(=O)Nc1ccc(Cn2nc(C(F)(F)F)nc2C(F)(F)F)cc1C (centres unmarked) [compound 215] | 100 | 100 | 100 | 
Cc1cc(Cn2nc(C(F)(F)F)nc2C(F)(F)F)ccc1NC(=O)c1cccc(I)c1C(=O)NC(C)CS(C)(=O)=O (centres unmarked) [compound 218] | 100 | 100 | 100 | 

Structure (SMILES) | controlling effect, rate of death [1] [%] | controlling effect, rate of death [2] [%] | controlling effect, rate of death [3] [%] | melting point [°C]
CCSCC(C)NC(=O)c1c(I)cccc1C(=O)Nc1ccc(Cn2nc(C(F)(F)F)nc2C(F)(F)F)cc1C (centres unmarked) [compound 220] | 100 | 100 | 100 | 
CCS(=O)(=O)CC(C)NC(=O)c1c(I)cccc1C(=O)Nc1ccc(Cn2nc(C(F)(F)F)nc2C(F)(F)F)cc1C (centres unmarked) [compound 222] | 100 | 100 | 100 | 
CSCC(C)NC(=O)c1c(I)cccc1C(=O)Nc1ccc(Cn2nc(C(F)(F)C(F)(F)F)nc2C(F)(F)F)cc1C (centres unmarked) [compound 226] | 100 | 100 | 100 | 
CSCC(C)NC(=O)c1c(I)cccc1C(=O)Nc1ccc(Cn2nc(C(F)(F)F)nc2C(F)F)cc1C (centres unmarked) [compound 239] | 100 |  |  | 
Cc1cc(Cn2nc(C(F)(F)F)nc2C(F)F)ccc1NC(=O)c1cccc(I)c1C(=O)NC(C)CS(C)(=O)=O (centres unmarked) [compound 243] | 100 |  |  | 
CSCC(C)(C)NC(=O)c1c(I)cccc1C(=O)Nc1ccc(C(C)n2ccc(C(F)(F)F)n2)cc1C (centres unmarked) [compound 558, N^2-(1,1-dimethyl-2-methylsulfanyl-ethyl)-3-iodo-N^1-{2-methyl-4-[1-(3-trifluoromethyl-1H-pyrazol-1-yl)-ethyl]-phenyl}-phthalamide] |  |  |  | 79 to 86
Cc1cc(C(C)n2nc(C(F)(F)F)nc2C(F)(F)F)ccc1NC(=O)c1cccc(Cl)c1C(=O)N[C@@H](C)C[S+](C)[O-] (some centres unmarked) [compound 569] | 100 |  |  | 
Cc1cc(C(C)n2nc(C(F)(F)F)nc2C(F)(F)F)ccc1NC(=O)c1cccc(Cl)c1C(=O)N[C@@H](C)CS(C)(=O)=O (some centres unmarked) [compound 570] | 100 | 100 | 100 | 
Cc1cc(C(C)n2nc(C(F)(F)F)nc2C(F)(F)F)ccc1NC(=O)c1cccc(I)c1C(=O)N[C@@H](C)C[S+](C)[O-] (some centres unmarked) [compound 572] | 100 | 100 | 100 | 
Cc1cc(C(C)n2nc(C(F)(F)C(F)(F)F)nc2C(F)(F)F)ccc1NC(=O)c1cccc(Cl)c1C(=O)N[C@@H](C)C[S+](C)[O-] (some centres unmarked) [compound 579] | 100 | 100 | 100 | 
Cc1cc(Cn2cc(C(F)(F)C(F)(F)C(F)(F)F)c(C(F)(F)C(F)(F)C(F)(F)F)n2)ccc1NC(=O)c1cccc(I)c1C(=O)N[C@@H](C)C[S+](C)[O-] (some centres unmarked) [compound 671] |  | 100 | 100 | 
Cc1cc(Cn2cc(C(F)(F)C(F)(F)C(F)(F)F)c(C(F)(F)C(F)(F)C(F)(F)F)n2)ccc1NC(=O)c1cccc(I)c1C(=O)N[C@@H](C)CS(C)(=O)=O [compound 672] |  | 100 | 100 | 
CSC[C@H](C)NC(=O)c1c(Cl)cccc1C(=O)Nc1ccc(Cn2nc(C(F)(F)C(F)(F)F)nc2C(F)(F)C(F)(F)F)cc1C [compound 681] |  | 100 | 100 | 
Cc1cc(Cn2nc(C(F)C(F)(F)F)nc2C(F)(F)F)ccc1NC(=O)c1cccc(Cl)c1C(=O)N[C@@H](C)C[S+](C)[O-] (some centres unmarked) [compound 797] | 100 |  |  | 
CSC[C@H](C)NC(=O)c1c(Cl)cccc1C(=O)Nc1ccc(Cn2nc(SC(F)(F)C(F)(F)C(F)(F)F)nc2C(F)(F)F)cc1C [compound 804] |  | 100 | 100 | 
Cc1cc(Cn2cc(C(F)(F)C(F)(F)F)c(C(F)(F)C(F)(F)C(F)(F)F)n2)ccc1NC(=O)c1cccc(I)c1C(=O)N[C@@H](C)C[S+](C)[O-] (some centres unmarked) [compound 920] | 100 | 100 | 100 | 
